Results as given in PubChem BioAssay AID1259407 (Chemical Carcinogenesis Research Information System (CCRIS), 2018).
Entries after “also recorded” stand apart in the source; their conditions may differ. Calls of active or inactive are those of the source. How the calls were made is not given here.

Tested on: CCRIS mutagenicity, Ames/micronucleus/aberration tests
Assay: CCRIS mutagenicity studies

COP(=O)(OC)OC=C(Cl)Cl
mutagenic call (End Point: IN VITRO CHROMOSOMAL ABERRATIONS, Test System: CHO CELLS, Metabolic Activation: NONE): active; positive | mutagenic call (End Point: IN VITRO CHROMOSOMAL ABERRATIONS, Test System: CHO CELLS, Metabolic Activation: RAT, LIVER, S-9, AROCLOR 1254): active; positive | mutagenic call (End Point: In vivo micronucleus, Test System: Erythrocytes, Species: Mouse, Strain/Sex: Males and females (Strain not identified by DPR), Route: Intraperitoneal): inactive; negative | mutagenic call (Test System: AMES SALMONELLA TYPHIMURIUM, Strain/Indicator: TA98, Metabolic Activation: HAMSTER, LIVER, S-9, AROCLOR 1254 (30%), Method: PREINCUBATION): inactive; negative | mutagenic call (Test System: AMES SALMONELLA TYPHIMURIUM, Strain/Indicator: TA98, Metabolic Activation: NONE, Method: PREINCUBATION): inactive; negative | mutagenic call (Test System: AMES SALMONELLA TYPHIMURIUM, Strain/Indicator: TA98, Metabolic Activation: RAT, LIVER, S-9, AROCLOR 1254 (30%), Method: PREINCUBATION): inactive; negative | mutagenic call (Test System: AMES SALMONELLA TYPHIMURIUM, Strain/Indicator: TA100, Metabolic Activation: HAMSTER, LIVER, S-9, AROCLOR 1254 (30%), Method: PREINCUBATION): active; positive | mutagenic call (Test System: AMES SALMONELLA TYPHIMURIUM, Strain/Indicator: TA100, Metabolic Activation: NONE, Method: PREINCUBATION): active; positive | mutagenic call (Test System: AMES SALMONELLA TYPHIMURIUM, Strain/Indicator: TA100, Metabolic Activation: RAT, LIVER, S-9, AROCLOR 1254 (30%), Method: PREINCUBATION): active; positive | mutagenic call (Test System: AMES SALMONELLA TYPHIMURIUM, Strain/Indicator: TA100, Metabolic Activation: S-9, Method: STANDARD PLATE): active; positive | mutagenic call (Test System: CHINESE HAMSTER OVARY, Strain/Indicator: CHO-K1-BH4 (HGPRT)/6-THIOGUANINE, Metabolic Activation: NONE): active; positive | mutagenic call (Test System: CHINESE HAMSTER OVARY, Strain/Indicator: CHO-K1-BH4 (HGPRT)/6-THIOGUANINE, Metabolic Activation: S-9): active; positive | mutagenic call (Test System: CHINESE HAMSTER V-79, Strain/Indicator: V-79/OUABAIN, Metabolic Activation: NONE): inactive; negative | mutagenic call (Test System: E. COLI, Strain/Indicator: WP2, Metabolic Activation: NONE, Method: FLUCTUATION): active; positive | mutagenic call (Test System: E. COLI, Strain/Indicator: WP2, Metabolic Activation: NONE, Method: PREINCUBATION): active; positive | mutagenic call (Test System: E. COLI, Strain/Indicator: WP2, Metabolic Activation: NONE, Method: STANDARD PLATE): active; positive | mutagenic call (Test System: E. COLI, Strain/Indicator: WP2, Metabolic Activation: RAT, LIVER, S-9, AROCLOR 1254, Method: STANDARD PLATE): active; positive | mutagenic call (Test System: E. COLI, Strain/Indicator: WP2 UVRA, Metabolic Activation: NONE, Method: FLUCTUATION): active; positive | mutagenic call (Test System: E. COLI, Strain/Indicator: WP2 UVRA, Metabolic Activation: NONE, Method: PREINCUBATION): active; positive | mutagenic call (Test System: E. COLI, Strain/Indicator: WP2 UVRA, Metabolic Activation: NONE, Method: STANDARD PLATE): active; positive | mutagenic call (Test System: MOUSE LYMPHOMA, Strain/Indicator: L5178Y (TK+/TK-), Metabolic Activation: NONE, Method: SUSPENSION/PLATE): active; positive | mutagenic call (Test System: Mouse lymphoma, Strain/Indicator: L5178Y (TK+/TK-), Metabolic Activation: None): active; positive | mutagenic call (Test System: Mouse lymphoma, Strain/Indicator: L5178Y (TK+/TK-), Metabolic Activation: Rat, Liver, S-9): active; positive | mutagenic call (Test System: UDS HUMAN CELLS, Strain/Indicator: EUE LINE/THY INCORP, Metabolic Activation: NONE, Method: AUTORADIOGRAPHY): active; positive | mutagenic call (Test System: UDS MOUSE FORESTOMACH EPITHELIUM, Strain/Indicator: THY INCORP, Metabolic Activation: NONE, Method: AUTORADIOGRAPHY): inactive; negative | mutagenic call (Test System: UDS RAT HEPATOCYTES, Strain/Indicator: BROMODEOXYURIDINE INCORP, Metabolic Activation: NONE, Method: FLOW CYTOMETRIC ANALYSIS): inactive; negative | mutagenic call (Test System: UDS RAT HEPATOCYTES, Strain/Indicator: THY INCORP, Metabolic Activation: NONE, Method: AUTORADIOGRAPHY): inactive; negative

CCSC(C)CC1CC(=O)C(/C(CC)=N/OC/C=C/Cl)=C(O)C1 (configuration not stated)
mutagenic call (End Point: In vitro chromosomal aberrations, Test System: Chinese hamster ovary (CHO) cells, Metabolic Activation: None): inactive; negative (purity 96.1%); also recorded: active; positive (structural changes; purity 81.4%) | mutagenic call (End Point: In vitro chromosomal aberrations, Test System: Chinese hamster ovary (CHO) cells, Metabolic Activation: Rat, liver, S-9, Aroclor 1254): inactive; negative (purity 96.1%) | mutagenic call (End Point: In vivo chromosomal aberrations, Test System: Bone marrow, Species: Rat, Strain/Sex: Sprague-Dawley/Female, Route: Gavage): inactive; negative (purity 83.3%) | mutagenic call (End Point: In vivo chromosomal aberrations, Test System: Bone marrow, Species: Rat, Strain/Sex: Sprague-Dawley/Male, Route: Gavage): inactive; negative (purity 83.3%) | mutagenic call (Test System: Ames Salmonella typhimurium, Strain/Indicator: TA98, Metabolic Activation: None, Method: Standard Plate): inactive; negative (purity 83.3%) | mutagenic call (Test System: Ames Salmonella typhimurium, Strain/Indicator: TA98, Metabolic Activation: Rat, liver, S-9, Aroclor, Method: Standard Plate): inactive; negative (purity 83.3%) | mutagenic call (Test System: Ames Salmonella typhimurium, Strain/Indicator: TA100, Metabolic Activation: None, Method: Standard Plate): inactive; negative (purity 83.3%) | mutagenic call (Test System: Ames Salmonella typhimurium, Strain/Indicator: TA100, Metabolic Activation: Rat, liver, S-9, Aroclor, Method: Standard Plate): inactive; negative (purity 83.3%) | mutagenic call (Test System: Ames Salmonella typhimurium, Strain/Indicator: TA1535, Metabolic Activation: None, Method: Standard Plate): inactive; negative (purity 83.3%) | mutagenic call (Test System: Ames Salmonella typhimurium, Strain/Indicator: TA1535, Metabolic Activation: Rat, liver, S-9, Aroclor, Method: Standard Plate): inactive; negative (purity 83.3%) | mutagenic call (Test System: Ames Salmonella typhimurium, Strain/Indicator: TA1537, Metabolic Activation: None, Method: Standard Plate): inactive; negative (purity 83.3%) | mutagenic call (Test System: Ames Salmonella typhimurium, Strain/Indicator: TA1537, Metabolic Activation: Rat, liver, S-9, Aroclor, Method: Standard Plate): inactive; negative (purity 83.3%) | mutagenic call (Test System: E. coli, Strain/Indicator: WP2uvrA, Metabolic Activation: None, Method: Standard Plate): inactive; negative (purity 83.3%) | mutagenic call (Test System: E. coli, Strain/Indicator: WP2uvrA, Metabolic Activation: Rat, liver, S-9, Aroclor, Method: Standard Plate): inactive; negative (purity 83.3%) | mutagenic call (Test System: UDS Mouse hepatocytes, Strain/Indicator: Thymidine incorporation, Metabolic Activation: Activation in whole animal, Method: Autoradiography): inactive; negative (purity 83.3%)
